Measured values published in PubChem BioAssay AID1963826 (Molecular Pharmacology Branch, DTP, NCI, 2024).

Tested on: 926638-142-R-J1-PDC complex spheroid viability
Assay: Anticancer human tumor 926638-142-R-J1-PDC patient-derived endometrial carcinoma cell line growth inhibition [POLQ]
Settings: for IC50: curve of first compound; for viability, T/C: stronger effect = lower value; active = viability on the fitted dose curve at most 10% of control; inactive = the rest
Procedure, shortened: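 Three-cell-type spheroids modelling solid tumor plus stroma served as the readout system; POL inhibitors were tested individually and in combination, concentration ranges set by clinical Cmax where known.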

[1] = second compound 0.0316 µM, first compound 0.0316 µM
[2] = second compound 0.0316 µM, first compound 0.1 µM
[3] = second compound 0.0316 µM, first compound 0.316 µM
[4] = second compound 0.0316 µM, first compound 1 µM
[5] = second compound 0.0316 µM, first compound 3.16 µM
[6] = second compound 0.0316 µM, first compound 10 µM
[7] = second compound 0.1 µM, first compound 0.0316 µM
[8] = second compound 0.1 µM, first compound 0.1 µM
[9] = second compound 0.1 µM, first compound 0.316 µM
[10] = second compound 0.1 µM, first compound 1 µM
[11] = second compound 0.1 µM, first compound 3.16 µM
[12] = second compound 0.1 µM, first compound 10 µM
[13] = second compound 0.316 µM, first compound 0.0316 µM
[14] = second compound 0.316 µM, first compound 0.1 µM
[15] = second compound 0.316 µM, first compound 0.316 µM
[16] = second compound 0.316 µM, first compound 1 µM
[17] = second compound 0.316 µM, first compound 3.16 µM
[18] = second compound 0.316 µM, first compound 10 µM
[19] = second compound 1 µM, first compound 0.0316 µM
[20] = second compound 1 µM, first compound 0.1 µM
[21] = second compound 1 µM, first compound 0.316 µM
[22] = second compound 1 µM, first compound 1 µM
[23] = second compound 1 µM, first compound 3.16 µM
[24] = second compound 1 µM, first compound 10 µM
[25] = second compound 3.16 µM, first compound 0.0316 µM
[26] = second compound 3.16 µM, first compound 0.1 µM
[27] = second compound 3.16 µM, first compound 0.316 µM
[28] = second compound 3.16 µM, first compound 1 µM
[29] = second compound 3.16 µM, first compound 3.16 µM
[30] = second compound 3.16 µM, first compound 10 µM
[31] = second compound 10 µM, first compound 0.0316 µM
[32] = second compound 10 µM, first compound 0.1 µM
[33] = second compound 10 µM, first compound 0.316 µM
[34] = second compound 10 µM, first compound 1 µM
[35] = second compound 10 µM, first compound 3.16 µM
[36] = second compound 10 µM, first compound 10 µM
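Also: spheroids exposed to drugs for one week before readout.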
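For viability, T/C in this document: percent viability relative to DMSO vehicle control wells set as 100%.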

C#Cc1c(F)ccc2cc(O)cc(-c3ncc4c(N5CC6CCC(C5)N6)nc(OCC56CCCN5CC(F)C6)nc4c3F)c12 (stereo not given) + COC1C(OC(N)=O)C(O)C(Oc2ccc3c(O)c(NC(=O)c4ccc(O)c(CC=C(C)C)c4)c(=O)oc3c2C)OC1(C)C
inactive: viability, T/C [1] 99.4% | viability, T/C [2] 84.1% | viability, T/C [3] 89% | viability, T/C [4] 84.2% | viability, T/C [5] 60.1% | viability, T/C [6] 54.6% | viability, T/C [7] 90.2% | viability, T/C [8] 86.6% | viability, T/C [9] 81.3% | viability, T/C [10] 72.9% | viability, T/C [11] 66.4% | viability, T/C [12] 51.9% | viability, T/C [13] 97.1% | viability, T/C [14] 73.7% | viability, T/C [15] 89.4% | viability, T/C [16] 64.9% | viability, T/C [17] 59.4% | viability, T/C [18] 65.9% | viability, T/C [19] 84.8% | viability, T/C [20] 81.7% | viability, T/C [21] 80.9% | viability, T/C [22] 71.9% | viability, T/C [23] 72.2% | viability, T/C [24] 61.9% | viability, T/C [25] 78.9% | viability, T/C [26] 84.2% | viability, T/C [27] 77.9% | viability, T/C [28] 72.2% | viability, T/C [29] 64.4% | viability, T/C [30] 52.5% | viability, T/C [31] 85.2% | viability, T/C [32] 73.5% | viability, T/C [33] 91.3% | viability, T/C [34] 67.4% | viability, T/C [35] 68.4% | viability, T/C [36] 62.9%
> 10000 nM: IC50 (second compound 0.0316 µM) | IC50 (second compound 0.1 µM) | IC50 (second compound 0.316 µM) | IC50 (second compound 1 µM) | IC50 (second compound 3.16 µM) | IC50 (second compound 10 µM)

CC(C)n1c(=O)n(C)c2cnc3cc(F)c(-c4ccc(OCCCN5CCCCC5)nc4)cc3c21 + COC1C(OC(N)=O)C(O)C(Oc2ccc3c(O)c(NC(=O)c4ccc(O)c(CC=C(C)C)c4)c(=O)oc3c2C)OC1(C)C
> 10000 nM: IC50 (second compound 0.0316 µM) | IC50 (second compound 0.1 µM) | IC50 (second compound 0.316 µM) | IC50 (second compound 1 µM) | IC50 (second compound 3.16 µM) | IC50 (second compound 10 µM)
inactive: viability, T/C [1] 87.3% | viability, T/C [2] 131% | viability, T/C [3] 131% | viability, T/C [4] 94.1% | viability, T/C [5] 87.2% | viability, T/C [6] 88.7% | viability, T/C [7] 98.7% | viability, T/C [8] 89.8% | viability, T/C [9] 110% | viability, T/C [10] 107% | viability, T/C [11] 90.3% | viability, T/C [12] 93.5% | viability, T/C [13] 101% | viability, T/C [14] 104% | viability, T/C [15] 108% | viability, T/C [16] 90.2% | viability, T/C [17] 86.6% | viability, T/C [18] 89% | viability, T/C [19] 119% | viability, T/C [20] 104% | viability, T/C [21] 104% | viability, T/C [22] 119% | viability, T/C [23] 81.9% | viability, T/C [24] 90.2% | viability, T/C [25] 87.4% | viability, T/C [26] 107% | viability, T/C [27] 101% | viability, T/C [28] 109% | viability, T/C [29] 88.2% | viability, T/C [30] 105% | viability, T/C [31] 114% | viability, T/C [32] 104% | viability, T/C [33] 114% | viability, T/C [34] 100% | viability, T/C [35] 89.5% | viability, T/C [36] 78.5%

CCc1cc2c(N3CCc4c(cc(Cn5ccnc5)cc4-c4cn(C)nc4C(F)(F)F)C3=O)ccnc2c(OC)n1 + COC1C(OC(N)=O)C(O)C(Oc2ccc3c(O)c(NC(=O)c4ccc(O)c(CC=C(C)C)c4)c(=O)oc3c2C)OC1(C)C
299 nM: IC50 (second compound 10 µM)
inactive: viability, T/C [1] 81.8% | viability, T/C [2] 60.3% | viability, T/C [3] 46.7% | viability, T/C [4] 38.5% | viability, T/C [5] 28% | viability, T/C [6] 25.9% | viability, T/C [7] 81.9% | viability, T/C [8] 63.8% | viability, T/C [9] 54.2% | viability, T/C [10] 40.9% | viability, T/C [11] 25.8% | viability, T/C [12] 22.7% | viability, T/C [13] 77.7% | viability, T/C [14] 57.7% | viability, T/C [15] 52.6% | viability, T/C [16] 43% | viability, T/C [17] 28.6% | viability, T/C [18] 26.6% | viability, T/C [19] 91.7% | viability, T/C [20] 60.2% | viability, T/C [21] 46.5% | viability, T/C [22] 45% | viability, T/C [23] 22.5% | viability, T/C [24] 26.1% | viability, T/C [25] 85.2% | viability, T/C [26] 54.2% | viability, T/C [27] 48.5% | viability, T/C [28] 38.5% | viability, T/C [29] 28.1% | viability, T/C [30] 21.1% | viability, T/C [31] 79.1% | viability, T/C [32] 64.5% | viability, T/C [33] 47% | viability, T/C [34] 40.1% | viability, T/C [35] 32% | viability, T/C [36] 25.9%
258 nM: IC50 (second compound 1 µM)
382 nM: IC50 (second compound 0.1 µM)
332 nM: IC50 (second compound 0.316 µM)
225 nM: IC50 (second compound 3.16 µM)
242 nM: IC50 (second compound 0.0316 µM)

COc1cc2cc(C(=O)CCC(=O)O)sc2cc1OC + COC1C(OC(N)=O)C(O)C(Oc2ccc3c(O)c(NC(=O)c4ccc(O)c(CC=C(C)C)c4)c(=O)oc3c2C)OC1(C)C
> 10000 nM: IC50 (second compound 0.0316 µM) | IC50 (second compound 0.1 µM) | IC50 (second compound 0.316 µM) | IC50 (second compound 1 µM) | IC50 (second compound 3.16 µM) | IC50 (second compound 10 µM)
inactive: viability, T/C [1] 93.6% | viability, T/C [2] 98.3% | viability, T/C [3] 87.9% | viability, T/C [4] 106% | viability, T/C [5] 99.6% | viability, T/C [6] 104% | viability, T/C [7] 85.9% | viability, T/C [8] 97.5% | viability, T/C [9] 98.2% | viability, T/C [10] 86.4% | viability, T/C [11] 94.3% | viability, T/C [12] 101% | viability, T/C [13] 105% | viability, T/C [14] 113% | viability, T/C [15] 88.1% | viability, T/C [16] 110% | viability, T/C [17] 91.6% | viability, T/C [18] 110% | viability, T/C [19] 86.7% | viability, T/C [20] 93% | viability, T/C [21] 94.5% | viability, T/C [22] 97.9% | viability, T/C [23] 97.7% | viability, T/C [24] 111% | viability, T/C [25] 99.2% | viability, T/C [26] 101% | viability, T/C [27] 103% | viability, T/C [28] 89.3% | viability, T/C [29] 81.1% | viability, T/C [30] 75.1% | viability, T/C [31] 98.4% | viability, T/C [32] 109% | viability, T/C [33] 102% | viability, T/C [34] 106% | viability, T/C [35] 81.1% | viability, T/C [36] 99.7%

COc1ccc([C@@H](O)c2cc(-c3ncnc4cc(N5CCOCC5)ccc34)c(F)cc2Cl)nn1 + COC1C(OC(N)=O)C(O)C(Oc2ccc3c(O)c(NC(=O)c4ccc(O)c(CC=C(C)C)c4)c(=O)oc3c2C)OC1(C)C
634 nM: IC50 (second compound 3.16 µM)
active: viability, T/C [6] 8.85% | viability, T/C [12] 7.89% | viability, T/C [24] 9.06% | viability, T/C [30] 7.51% | viability, T/C [36] 7.25%
inactive: viability, T/C [1] 106% | viability, T/C [2] 77.5% | viability, T/C [3] 64% | viability, T/C [4] 28.1% | viability, T/C [5] 16.5% | viability, T/C [7] 109% | viability, T/C [8] 89% | viability, T/C [9] 64% | viability, T/C [10] 24.4% | viability, T/C [11] 12.6% | viability, T/C [13] 106% | viability, T/C [14] 92.4% | viability, T/C [15] 64.9% | viability, T/C [16] 31.9% | viability, T/C [17] 17.5% | viability, T/C [18] 9.34% | viability, T/C [19] 84.7% | viability, T/C [20] 82.3% | viability, T/C [21] 57.7% | viability, T/C [22] 29.1% | viability, T/C [23] 10.7% | viability, T/C [25] 96.4% | viability, T/C [26] 102% | viability, T/C [27] 80.4% | viability, T/C [28] 29.8% | viability, T/C [29] 11.9% | viability, T/C [31] 91.6% | viability, T/C [32] 88.9% | viability, T/C [33] 57.8% | viability, T/C [34] 30.9% | viability, T/C [35] 14%
443 nM: IC50 (second compound 1 µM)
535 nM: IC50 (second compound 0.316 µM)
434 nM: IC50 (second compound 0.0316 µM)
468 nM: IC50 (second compound 10 µM)
454 nM: IC50 (second compound 0.1 µM)
